Measurements from patent US11136292B2, “Plant growth regulator compounds” (SYNGENTA PARTICIPATIONS AG, priority 2016, dated 2021).
Where two headings read alike, the source gives them in different places.

Tested on: NK Falkone 2015 corn seeds
Assay: Corn seed germination under cold stress (Example B1)
Assay type: in vivo
Conditions: Zea mays, cold stress 15° C.; for change in vivo at 0.4 µM: Rate 0.4 μM; for change in vivo at 2 µM: Rate 2 μM; for change in vivo at 10 µM: Rate 10 μM; for change in vivo at 50 µM: Rate 50 μM
Method: The effect of compounds of formula (I) on the germination of NK Falkone 2015 corn seeds under cold stress was evaluated as follows. NK Falkone corn seeds were sorted by size using 2 sieves, one excluding very big seeds and the other with round holes of 8 to 9 mm diameter. The seeds retained by the latter sieve were used for the germination test. The corn seeds were placed in 24 well plates (each plate was considered as one experimental unit or replicate). Germination was initiated by the addition of 250 μl of distilled water containing 0.5% DMSO per well as a means for compound solubilization. 8 replicates (ie, 8 plates) were used for each treatment characterization. Plates were sealed using seal foil (Polyolefin Art. Nr. 900320) from HJ-BIOANALYTIK. All plates were placed horizontally on trolleys in a climatic chamber at 15° C. The experiment was laid out in a completely randomized design in climatic chamber with 75% Relative Humidity. Foils were pierced, one hole per well using a syringe after 72 hours for experiments performed at 15° C.
Germination was followed over time by taking photographs at different time points. Image analysis was performed automatically with a macro which was developed using the Image J software. A dynamic analysis of germination was carried out by fitting a logistic curve. Three parameters were calculated from the logistic curve: the T50; the slope and the plateau. All three parameters have a high agronomical relevance and are key requirements to ensure a good early crop-establishment. All the values are expressed as percentages compared to an untreated control. All the three parameters are calculated considering 8 replicates and the kinetic parameters are separately determined for each germination curve. Data in bold indicate germination enhancing statistically significant differences between treated seeds and untreated control (p<0.05). The T50 corresponds to the time needed for half of the seed population to germinate. Higher negative %-values indicate faster germination. The slope indicates how synchronous the germination of the seed population is. Positive values indicate steeper curve; the steeper the curve, the better and more uniform the germination is.

[1] = slope of logistic germination curve, read-out: Slope (% vs control)
[2] = time for half of seeds to germinate, control T50 = 110 hours, read-out: T50 (% vs control)

Work on `CCOC(=O)/C(=C/OC1C=C(C)C(=O)O1)C1Cc2ccccc21` (centres unmarked) [Compound I-76] yielded a change in vivo at 0.4 µM [1] of -5.6%, a change in vivo at 0.4 µM [2] of -0.5% and a change in vivo at 2 µM [1] of -5%. The change in vivo at 2 µM [2] was -0.7%, the change in vivo at 10 µM [1] was 50.6% and the change in vivo at 10 µM [2] was -6.4%. For the same compound, the change in vivo at 50 µM [1] was 122% and the change in vivo at 50 µM [2] was -8.8%.
